Experiment [1] concerns the target Apoptosis regulator Bcl-2 (Homo sapiens, UniProt P10415). Briefly: Inhibition of N-terminal FAM-labeled Bid-BH3 peptide binding to Bcl2 (unknown origin) preincubated for 30 mins followed by N-terminal FAM-labeled Bid-BH3 peptide addition measured after 20 mins by fluorescence polarization assay.
For experiment [2], the target named is Bcl-2-like protein 1 (Homo sapiens, UniProt Q07817). In words: Inhibition of N-terminal FAM-labeled Bid-BH3 peptide binding to Bcl-XL (unknown origin) preincubated for 30 mins followed by N-terminal FAM-labeled Bid-BH3 peptide addition measured after 20 mins by fluorescence polarization assay. On the technique in general: Polarisation of emitted light reports the rotation of a fluorescent probe.

Experiment [3] has as its target Induced myeloid leukemia cell differentiation protein Mcl-1 (Homo sapiens, UniProt Q07820). Briefly: Inhibition of N-terminal FAM-labeled Bid-BH3 peptide binding to MCL1 (unknown origin) preincubated for 30 mins followed by N-terminal FAM-labeled Bid-BH3 peptide addition measured after 20 mins by fluorescence polarization assay.
Experiment [4] has as its system MDA-MB-231. In words: Antiproliferative activity against human MDA-MB-231 cells after 48 hrs by MTT assay. Type of experiment: functional, cell-based. The following applies: MDA-MB-231, 48 h.
For experiment [5], the system named is PC-3. In words: Antiproliferative activity against human PC3 cells after 48 hrs by MTT assay. Type of experiment: functional, cell-based. The following applies: PC-3, 48 h.
Experiment [6] relates to K562. In words: Antiproliferative activity against human K562 cells after 48 hrs by MTT assay. The settings on record: K562, 48 h. Type of experiment: functional, cell-based. In general terms: Formazan colour is commonly taken as a measure of viable cells.

As a reminder, the Ki is the equilibrium dissociation constant of an inhibitor or competing ligand from its target. As a reminder, the IC50 is the point on the concentration scale where inhibition reaches its midpoint. A low value points to greater potency in that assay.

Sequence of Induced myeloid leukemia cell differentiation protein Mcl-1 (Q07820 whole entry): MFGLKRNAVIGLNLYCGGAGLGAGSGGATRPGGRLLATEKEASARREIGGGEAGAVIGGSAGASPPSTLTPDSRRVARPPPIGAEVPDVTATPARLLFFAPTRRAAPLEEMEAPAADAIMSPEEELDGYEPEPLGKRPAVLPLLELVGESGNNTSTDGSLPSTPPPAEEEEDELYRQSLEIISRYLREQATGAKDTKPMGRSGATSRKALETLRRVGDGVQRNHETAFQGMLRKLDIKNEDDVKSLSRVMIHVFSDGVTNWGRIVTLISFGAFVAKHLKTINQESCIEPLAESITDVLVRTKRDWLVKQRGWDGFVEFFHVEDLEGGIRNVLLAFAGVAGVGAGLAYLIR
Sequence of Apoptosis regulator Bcl-2 (P10415 whole entry): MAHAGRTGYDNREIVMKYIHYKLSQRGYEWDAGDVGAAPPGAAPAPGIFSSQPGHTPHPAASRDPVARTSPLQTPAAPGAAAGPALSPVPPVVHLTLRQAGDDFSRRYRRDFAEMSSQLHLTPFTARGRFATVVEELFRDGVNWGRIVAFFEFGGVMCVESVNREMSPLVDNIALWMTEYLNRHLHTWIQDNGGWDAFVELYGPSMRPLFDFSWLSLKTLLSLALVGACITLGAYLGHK
Sequence of Bcl-2-like protein 1 (Q07817 whole entry): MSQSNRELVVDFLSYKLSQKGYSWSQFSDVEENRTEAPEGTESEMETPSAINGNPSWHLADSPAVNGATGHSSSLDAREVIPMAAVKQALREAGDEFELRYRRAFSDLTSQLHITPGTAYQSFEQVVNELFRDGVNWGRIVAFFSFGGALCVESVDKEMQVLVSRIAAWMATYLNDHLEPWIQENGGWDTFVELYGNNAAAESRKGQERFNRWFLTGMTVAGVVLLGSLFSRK

Compound `CCCOc1ccc(C[C@H](NC(=O)c2cn(Cc3ccc(-c4ccccc4)cc3)c3ccccc23)C(=O)NS(=O)(=O)c2ccc(Cl)c([N+](=O)[O-])c2)cc1` registered a Ki in experiment [1] of 5.6 µM. Still for that read-out and setting: the result for `O=C(N[C@@H](Cc1ccc(Br)cc1)C(=O)NS(=O)(=O)c1ccc(Cl)c([N+](=O)[O-])c1)c1cn(Cc2ccc(-c3ccc(Cl)cc3)cc2)c2ccccc12` reads more than 10 µM.

The compound `CCCOc1ccc(C[C@H](NC(=O)c2cn(Cc3ccc(-c4ccc(Cl)cc4)cc3)c3ccccc23)C(=O)NS(=O)(=O)c2ccc(Cl)c([N+](=O)[O-])c2)cc1` came in with a Ki in experiment [1] of more than 10 µM. The compound `COc1ccc(-c2ccc(Cn3cc(C(=O)N[C@@H](Cc4ccccc4)C(=O)NS(=O)(=O)c4ccc(Cl)c([N+](=O)[O-])c4)c4ccccc43)cc2)cc1` gave a Ki in experiment [1] of more than 10 µM. Regarding `O=C(N[C@@H](Cc1ccc(Br)cc1)C(=O)NS(=O)(=O)c1ccccc1)c1cn(Cc2ccc(-c3ccc(Cl)cc3)cc2)c2ccccc12`, the Ki in experiment [1] amounted to 0.91 µM. For the compound `Cc1ccc(S(=O)(=O)NC(=O)[C@H](Cc2ccccc2)N2C(=O)/C(=C/c3ccc(-c4ccccc4)cc3)SC2=S)cc1`, the figures for the Ki in experiment [1], in experiment [2] and in experiment [3] were 0.76 µM, 0.81 µM and 0.44 µM, respectively. In the case of `COc1ccc(-c2ccc(Cn3cc(C(=O)N[C@@H](Cc4c[nH]c5ccccc45)C(=O)NS(=O)(=O)c4ccc(C)cc4)c4ccccc43)cc2)cc1`, the inhibitory constant (Ki) stood at 0.75 µM in experiment [1] and 0.53 µM in experiment [3]. The concentration for half-maximal inhibition (IC50) amounted to 11.5 µM in experiment [4], 18.3 µM in experiment [5] and 10.1 µM in experiment [6]. For `COc1ccc(-c2ccc(Cn3cc(C(=O)N[C@@H](Cc4ccc(OCc5ccccc5)cc4)C(=O)NS(=O)(=O)c4ccc(Cl)c([N+](=O)[O-])c4)c4ccccc43)cc2)cc1`, the Ki in experiment [1] is more than 10 µM. For the compound `COc1ccc(-c2ccc(Cn3cc(C(=O)N[C@@H](Cc4c[nH]c5ccccc45)C(=O)NS(=O)(=O)c4ccc(Cl)c([N+](=O)[O-])c4)c4ccccc43)cc2)cc1`, the inhibition constant Ki in experiment [1] is more than 10 µM. In experiment [1], `O=C(N[C@@H](Cc1ccc(Br)cc1)C(=O)NS(=O)(=O)c1ccc(Cl)c([N+](=O)[O-])c1)c1cn(Cc2ccc(-c3ccccc3)cc2)c2ccccc12` showed an inhibition constant (Ki) of more than 10 µM.

Consider `O=C(N[C@@H](Cc1ccccc1)C(=O)NS(=O)(=O)c1ccc(Cl)c([N+](=O)[O-])c1)c1cn(Cc2ccc(-c3ccc(Cl)cc3)cc2)c2ccccc12`, for which the figures for the inhibitory constant (Ki) in experiment [1], in experiment [2] and in experiment [3] were 0.26 µM, 0.71 µM and 0.072 µM, respectively. Also, the IC50 in experiment [4] amounted to 29.5 µM; in experiment [5], 28.8 µM; in experiment [6], 19.7 µM. Compound `O=C(N[C@@H](Cc1ccccc1)C(=O)NS(=O)(=O)c1ccccc1)c1cn(Cc2ccc(-c3ccccc3)cc2)c2ccccc12` registered a Ki in experiment [1] of more than 10 µM. In turn, `COc1ccc(-c2ccc(Cn3cc(C(=O)N[C@@H](Cc4ccccc4)C(=O)O)c4ccccc43)cc2)cc1` showed a Ki in experiment [1] of more than 10 µM. In the case of `Cc1ccc(-c2ccc(Cn3cc(C(=O)N[C@@H](Cc4ccc(OCc5ccccc5)cc4)C(=O)NS(=O)(=O)c4ccc(Cl)c([N+](=O)[O-])c4)c4ccccc43)cc2)cc1`, in experiment [1], the inhibitory constant (Ki) is more than 10 µM. In experiment [1], `O=C(N[C@@H](Cc1ccc(OCc2ccc([N+](=O)[O-])cc2)cc1)C(=O)NS(=O)(=O)c1ccc(Cl)c([N+](=O)[O-])c1)c1cn(Cc2ccc(-c3ccccc3)cc2)c2ccccc12` displayed a Ki of more than 10 µM. `CCCOc1ccc(C[C@H](NC(=O)c2cn(Cc3ccc(-c4ccc(OC)cc4)cc3)c3ccccc23)C(=O)NS(=O)(=O)c2ccc(Cl)c([N+](=O)[O-])c2)cc1` had a Ki in experiment [1] of more than 10 µM.

In the case of `Cc1cc2c(C(C)C)c(O)c(O)c(C=O)c2c(O)c1-c1c(C)cc2c(C(C)C)c(O)c(O)c(C=O)c2c1O` [GOSSYPOL], the IC50 in experiment [4] worked out at 8.54 µM; in experiment [5], 8.58 µM; in experiment [6] it was 8.28 µM. `COc1ccc(-c2ccc(Cn3cc(C(=O)N[C@@H](Cc4ccc(OCc5ccc([N+](=O)[O-])cc5)cc4)C(=O)NS(=O)(=O)c4ccc(Cl)c([N+](=O)[O-])c4)c4ccccc43)cc2)cc1` had a Ki in experiment [1] of more than 10 µM.

On to `COc1ccc(-c2ccc(Cn3cc(C(=O)N[C@@H](Cc4ccccc4)C(=O)NS(=O)(=O)c4ccccc4)c4ccccc43)cc2)cc1`, for which the affinity in experiment [1] corresponds to a Ki of 1.3 µM.

For the compound `COc1ccc(-c2ccc(Cn3cc(C(=O)N[C@@H](Cc4ccc(Br)cc4)C(=O)NS(=O)(=O)c4ccc(Cl)c([N+](=O)[O-])c4)c4ccccc43)cc2)cc1`, the inhibition constant (Ki) in experiment [1] was more than 10 µM. For `CC(C)C[C@H](NC(=O)c1cn(Cc2ccc(-c3ccc(Cl)cc3)cc2)c2ccccc12)C(=O)NS(=O)(=O)c1ccccc1`, the Ki is 0.92 µM in experiment [1], 6.2 µM in experiment [2] and 0.6 µM in experiment [3].

On to `O=C(N[C@@H](Cc1ccccc1)C(=O)NS(=O)(=O)c1ccccc1)c1cn(Cc2ccc(-c3ccc(Cl)cc3)cc2)c2ccccc12`, for which the inhibition constant (Ki) in experiment [1] was 0.74 µM; in experiment [2], 2.1 µM; in experiment [3] it was 0.49 µM. Besides, the figures for the IC50 in experiment [4], in experiment [5] and in experiment [6] were 29.6 µM, 23.6 µM and 32.4 µM, respectively. In turn, `CCCOc1ccc(C[C@H](NC(=O)c2cn(Cc3ccc(-c4ccc(Cl)cc4)cc3)c3ccccc23)C(=O)NS(=O)(=O)c2ccc([N+](=O)[O-])cc2)cc1` yielded an inhibition constant (Ki) in experiment [1] of more than 10 µM.

In the case of `O=C(N[C@@H](Cc1ccc(OCc2ccccc2)cc1)C(=O)NS(=O)(=O)c1ccc(Cl)c([N+](=O)[O-])c1)c1cn(Cc2ccc(-c3ccccc3)cc2)c2ccccc12`, the Ki in experiment [1] was more than 10 µM. In turn, `O=C(N[C@@H](Cc1ccccc1)C(=O)NS(=O)(=O)c1ccc(Cl)c([N+](=O)[O-])c1)c1cn(Cc2ccc(-c3ccccc3)cc2)c2ccccc12` displayed a Ki in experiment [1] of 2.6 µM.

In experiment [1], `O=C(N[C@@H](Cc1ccc(OCc2ccccc2)cc1)C(=O)NS(=O)(=O)c1ccc(Cl)c([N+](=O)[O-])c1)c1cn(Cc2ccc(-c3ccc(Cl)cc3)cc2)c2ccccc12` had an inhibition constant (Ki) of more than 10 µM. Same read-out and setting: then `O=C(N[C@@H](Cc1ccc(OCc2ccc([N+](=O)[O-])cc2)cc1)C(=O)NS(=O)(=O)c1ccc(Cl)c([N+](=O)[O-])c1)c1cn(Cc2ccc(-c3ccc(Cl)cc3)cc2)c2ccccc12`, with more than 10 µM.

Source of the values: ChEMBL document CHEMBL3992555, “Design, synthesis and preliminary biological evaluation of indole-3-carboxylic acid-based skeleton of Bcl-2/Mcl-1 dual inhibitors” (Bioorg Med Chem, 2017).
